Source: ChEMBL document CHEMBL1671837, “[I]-Celecoxib Analogues as SPECT Tracers of Cyclooxygenase-2 in Inflammation” (ACS Med Chem Lett, 2011)
pIC50: −log10 of the molar value. Activity calls are given as the source filed them. The rule behind the calls is not given here.

Columns and labels:
[1] = molecular target: T1, Prostaglandin G/H synthase 1 (Ovis aries, UniProt P05979); experiment: Inhibition of ovine purified COX1 after 20 mins
T1 sequence (P05979 whole entry): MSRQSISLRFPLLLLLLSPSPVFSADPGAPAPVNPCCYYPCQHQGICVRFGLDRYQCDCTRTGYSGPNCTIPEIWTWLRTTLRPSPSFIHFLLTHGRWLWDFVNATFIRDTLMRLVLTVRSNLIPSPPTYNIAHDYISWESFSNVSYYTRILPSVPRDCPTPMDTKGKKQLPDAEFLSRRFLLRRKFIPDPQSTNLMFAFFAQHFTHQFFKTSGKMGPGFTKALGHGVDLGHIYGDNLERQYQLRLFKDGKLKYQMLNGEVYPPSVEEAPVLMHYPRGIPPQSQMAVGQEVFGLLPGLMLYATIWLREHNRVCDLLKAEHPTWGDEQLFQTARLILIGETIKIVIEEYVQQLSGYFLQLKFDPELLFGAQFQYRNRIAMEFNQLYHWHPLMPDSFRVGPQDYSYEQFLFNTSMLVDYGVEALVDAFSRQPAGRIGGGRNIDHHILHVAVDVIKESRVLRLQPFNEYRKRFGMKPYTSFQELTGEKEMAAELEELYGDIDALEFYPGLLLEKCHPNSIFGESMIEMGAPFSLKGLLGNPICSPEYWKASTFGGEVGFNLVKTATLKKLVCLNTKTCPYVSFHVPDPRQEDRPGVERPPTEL

[2] = molecular target: T2, Prostaglandin G/H synthase 2 (Mus musculus, UniProt Q05769); experiment: Inhibition of COX2 in mouse LPS-stimulated RAW264.7 cells after 30 mins; assay type: cell-based
T2 sequence (Q05769 whole entry): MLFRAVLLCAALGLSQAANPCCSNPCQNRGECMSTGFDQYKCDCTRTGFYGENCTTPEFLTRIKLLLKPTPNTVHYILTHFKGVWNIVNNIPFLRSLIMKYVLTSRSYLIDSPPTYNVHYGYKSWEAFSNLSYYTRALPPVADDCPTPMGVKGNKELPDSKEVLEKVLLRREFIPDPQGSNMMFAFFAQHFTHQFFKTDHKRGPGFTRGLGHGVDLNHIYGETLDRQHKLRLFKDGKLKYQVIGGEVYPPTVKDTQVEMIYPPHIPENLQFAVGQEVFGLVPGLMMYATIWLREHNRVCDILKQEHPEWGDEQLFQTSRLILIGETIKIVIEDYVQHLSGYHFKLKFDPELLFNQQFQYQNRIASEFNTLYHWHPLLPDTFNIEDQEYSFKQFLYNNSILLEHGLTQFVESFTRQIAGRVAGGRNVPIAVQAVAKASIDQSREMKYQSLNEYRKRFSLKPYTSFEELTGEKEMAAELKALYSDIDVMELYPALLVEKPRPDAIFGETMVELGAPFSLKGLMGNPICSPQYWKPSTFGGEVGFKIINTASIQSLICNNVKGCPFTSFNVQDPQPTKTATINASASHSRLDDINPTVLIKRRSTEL

[3] = molecular target: T3, Prostaglandin G/H synthase 1 (Mus musculus) (UniProt P22437); experiment: Inhibition of COX1 in mouse LPS-stimulated RAW264.7 cells at up to 5 uM after 30 mins; assay type: cell-based
T3 sequence (whole entry): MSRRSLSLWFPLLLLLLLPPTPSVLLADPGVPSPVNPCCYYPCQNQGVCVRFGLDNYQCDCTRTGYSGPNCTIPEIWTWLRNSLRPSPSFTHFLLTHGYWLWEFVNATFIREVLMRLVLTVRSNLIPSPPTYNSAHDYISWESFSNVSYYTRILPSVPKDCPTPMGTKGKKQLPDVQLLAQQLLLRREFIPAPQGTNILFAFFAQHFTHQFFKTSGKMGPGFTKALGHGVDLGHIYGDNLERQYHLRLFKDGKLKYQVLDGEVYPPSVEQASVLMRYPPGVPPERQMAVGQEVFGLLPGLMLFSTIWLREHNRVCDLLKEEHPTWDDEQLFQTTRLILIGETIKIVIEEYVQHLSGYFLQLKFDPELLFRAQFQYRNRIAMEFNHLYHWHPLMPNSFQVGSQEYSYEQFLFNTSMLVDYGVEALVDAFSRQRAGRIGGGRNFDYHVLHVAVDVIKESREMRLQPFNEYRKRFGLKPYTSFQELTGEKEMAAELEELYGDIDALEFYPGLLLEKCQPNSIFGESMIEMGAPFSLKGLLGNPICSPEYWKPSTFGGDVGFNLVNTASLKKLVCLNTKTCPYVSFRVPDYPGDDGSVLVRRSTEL

Row | Compound | pIC50 [1] | pIC50 [2] | inhibition [3]
1 | COC(=O)c1cc(-c2ccc(I)cc2)n(-c2ccc(S(C)(=O)=O)cc2)n1 | < 5.40 | – | –
2 | CS(=O)(=O)c1ccc(-n2nc(C(F)(F)F)cc2-c2cccc(I)c2)cc1 | < 5.40 | – | –
3 | COC(=O)c1cc(-c2cccc(I)c2)n(-c2ccc(S(N)(=O)=O)cc2)n1 | < 5.40 | – | –
4 | NS(=O)(=O)c1ccc(-n2nc(CCC(=O)O)cc2-c2ccc(I)cc2)cc1 | < 5.40 | – | –

More lines, now with the values ahead:

Row | pIC50 [1] | pIC50 [2] | inhibition [3] | Compound
5 | < 5.40 | – | – | NS(=O)(=O)c1ccc(-n2nc(CCC(=O)O)cc2-c2cccc(I)c2)cc1
6 | < 5.40 | 7.52 | inactive | CS(=O)(=O)c1ccc(-n2nc(C(F)(F)F)cc2-c2ccc(I)cc2)cc1
7 | < 5.40 | 5.57 | – | CCOC(=O)c1cc(-c2ccc(I)cc2)n(-c2ccc(S(N)(=O)=O)cc2)n1
8 | < 5.40 | – | – | COC(=O)c1cc(-c2cccc(I)c2)n(-c2ccc(S(C)(=O)=O)cc2)n1
9 | < 5.40 | – | – | COC(=O)c1cc(-c2ccc(I)cc2)n(-c2ccc(S(N)(=O)=O)cc2)n1
